# Test results published in patent US20240101566A1, “TRICYCLIC UBIQUITIN SPECIFIC PROTEASE 1 INHIBITOR AND USE THEREOF” (SHANDONG XUANZHU PHARMA CO., LTD., priority 2021, published 2024).
# Assays:
# [1] = target: Recombinant Human His6-USP1/His6-UAF1 Complex Protein (Homo sapiens (Human), UniProt O94782); test: In-vitro enzymatic activity on USP1, first experimental method (Ub-Rho substrate, 15 min incubation); assay type: biochemical; settings: incubation at room temperature 15 minutes, read-out: Inhibitory activities on USP-1, IC50
# Description: Experimental Example 1 In-vitro Enzymatic Activities of Compounds of the Present Disclosure
# First Experimental Method:
# 1) The compounds of the present disclosure were prepared to 10 mM with DMSO, and used as test stock solutions.
# 2) The stock solutions of the compounds of the present disclosure were diluted in a 4-fold gradient for 10 concentrations, with a maximum concentration of 10 mM.
# 3) The diluted compounds of the present disclosure were respectively transferred to 384-well plates (diluted by 1,000 folds) by Echo550, 2 multiple wells were set for each concentration, and a final concentration of DMSO was […].
# 1) An enzyme solution was prepared in 1×test buffer.
# 2) Ubiquitin Rhodamine 110 protein, CF (UB-Rho), was added into 1×determination buffer to prepare a substrate solution.
# 3) 10 μL of enzyme solution and 1×reaction buffer were transferred to a 384-well plate, and
# 4) incubated at room temperature for 15 minutes.
# 5) 10 μL of substrate solution was added into each well to start the reaction, centrifuged for 30 seconds, and shaken for 30 seconds.
# 1) Plate reading was carried out on SpectraMax Paradigm for 30 minutes, with an excitation wavelength of 480 nm and an emission wavelength of 540 nm.
# 2) Data on SpectraMax Paradigm were collected.
# An inhibition (% inh) was calculated by the following formula:
# [formula] • wherein, Max represented: a luminous signal intensity of a positive control well without adding the compound; • Min represented: a luminous signal intensity of a negative control well without adding the enzyme; and • Signal represented: a luminous signal intensity of the compound of the test sample.
# IC50 was Calculated by the Following Formula:
# [formula] • wherein, Y represented: % inhibition; and • X represented: the concentration of the compound.
# [2] = parameters: species or system mice; settings: mouse, in vivo, iv, 5 mg/kg
# Description: Experiment Example 4 Pharmacokinetic Experiment of Compounds of the Present Disclosure 1. Test compounds: the compounds in the examples of the present disclosure, prepared according to the examples in the specification of the present disclosure. [table] (1) Intravenous administration (iv): 2.54 mg of compound 11 was taken, added with 0.495 ml of DMSO solution to be dissolved by vortex and ultrasound, added with 0.495 ml of PEG400 to be mixed by vortex, and then added with 1.484 ml of 28% HP-β-CD to be mixed by vortex to obtain a clear solution, with a concentration of 1 mg/ml. (2) Oral administration (po): 3.33 mg of compound 11 was taken, added with 3.243 ml of solvent (2% HPC+0.1% Tween 80), and ground evenly to obtain a uniform suspension, with a concentration of 1 mg/ml. The test compounds were administered intravenously (iv), with an administration dosage of 5 mg/kg and an administration volume of 5 ml/kg. The test compounds were administered orally (po), with an administration dosage of 10 mg/kg and an administration volume of 10 ml/kg. […] LC-MS/MS was to be analyzed.
# MDA-MB-436 cells = test: First in-vitro cytological inhibitory activity experiment (CelltiterGlo assay); assay type: cell-based, human; settings: Experimental Example 2, 4,000 cells/well, 7 days, read-out: In-vitro cytological activities, IC50, MDA-MB-436
# Description: Experimental Example 2 First Experiment of in-vitro Cytological Inhibitory Activities of Compounds of the Present Disclosure
# A cell line used in the following experiment was as follows: MDA-MB-436: human breast cancer cells.
# Experimental method (CelltiterGlo assay)
# All cells were adherent cells, the medium was DMEM+10% FBS+1% ITS-G+16 μg/ml glutathione, and the cells were tested in a logarithmic growth phase.
# Cells in the logarithmic growth phase were collected and counted by a […]. The cell viability was detected by a trypan blue exclusion method, and the cell viability was kept over 90%. The cell concentration was adjusted to be in a proper range, and 90 μL of cell suspension was added into a 96-well plate respectively.
# 2.1 DMSO stock solutions of the test compounds were prepared, and concentrations of the stock solutions of the test compounds were 10 mM respectively.
# The stock solutions of the test compounds were serially diluted from 10 mM with DMSO in a 3-fold gradient for a total of 8 concentrations. Then, 2 µL of DMSO-gradient diluted compounds were respectively added into 198 µL of culture solutions to give the working stock solutions of the test compounds (a compound concentration was 10-fold higher than the final concentration, and a maximum concentration was […]).
# 10 μL of compound working stock solution was added into each well in the 96-well plate inoculated with cells (10-fold dilution, a final DMSO concentration was 0.1%).
# Solvent control: 0.1% DMSO. […]
# A CTG reagent was thawed and the 96-well plate was equilibrated to room temperature for 30 minutes, 60 μL of reagent (Celititer Glo assay kit) was added into each well, shaking was carried out for 2 minutes with a shaker (in the absence of light), and the plate was incubated at room temperature for 20 minutes (in the absence of light). Light signal values were read on a multi-functional microplate reader.
# 1) inhibition (%)=(DMSO solvent control well reading−test compound well reading)/(DMSO solvent control well reading−blank control well reading)×100%; […]
# Sequence of Recombinant Human His6-USP1/His6-UAF1 Complex Protein (O94782 whole entry): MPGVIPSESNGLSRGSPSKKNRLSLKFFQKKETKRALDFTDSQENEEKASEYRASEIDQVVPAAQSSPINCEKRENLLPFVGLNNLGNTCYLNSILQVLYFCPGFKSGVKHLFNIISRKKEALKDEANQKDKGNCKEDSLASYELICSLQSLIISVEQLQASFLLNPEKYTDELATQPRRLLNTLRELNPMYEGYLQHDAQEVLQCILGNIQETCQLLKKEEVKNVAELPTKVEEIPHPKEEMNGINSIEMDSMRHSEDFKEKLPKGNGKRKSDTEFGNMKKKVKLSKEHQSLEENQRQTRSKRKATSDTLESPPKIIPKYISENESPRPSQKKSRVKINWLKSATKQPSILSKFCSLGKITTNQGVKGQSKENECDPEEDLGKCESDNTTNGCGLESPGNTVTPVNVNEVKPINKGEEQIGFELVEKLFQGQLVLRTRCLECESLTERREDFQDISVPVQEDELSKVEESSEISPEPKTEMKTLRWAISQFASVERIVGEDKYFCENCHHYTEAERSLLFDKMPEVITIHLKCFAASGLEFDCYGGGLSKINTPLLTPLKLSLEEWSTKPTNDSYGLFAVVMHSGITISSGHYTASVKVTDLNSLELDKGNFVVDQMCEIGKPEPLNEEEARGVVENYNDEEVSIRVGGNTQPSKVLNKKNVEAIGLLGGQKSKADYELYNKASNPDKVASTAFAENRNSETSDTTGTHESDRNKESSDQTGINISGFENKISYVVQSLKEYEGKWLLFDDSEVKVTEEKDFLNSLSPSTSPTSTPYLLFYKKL
# Sequence of Recombinant Human His6-USP1/His6-UAF1 Complex Protein (Q8TAF3 whole entry partner): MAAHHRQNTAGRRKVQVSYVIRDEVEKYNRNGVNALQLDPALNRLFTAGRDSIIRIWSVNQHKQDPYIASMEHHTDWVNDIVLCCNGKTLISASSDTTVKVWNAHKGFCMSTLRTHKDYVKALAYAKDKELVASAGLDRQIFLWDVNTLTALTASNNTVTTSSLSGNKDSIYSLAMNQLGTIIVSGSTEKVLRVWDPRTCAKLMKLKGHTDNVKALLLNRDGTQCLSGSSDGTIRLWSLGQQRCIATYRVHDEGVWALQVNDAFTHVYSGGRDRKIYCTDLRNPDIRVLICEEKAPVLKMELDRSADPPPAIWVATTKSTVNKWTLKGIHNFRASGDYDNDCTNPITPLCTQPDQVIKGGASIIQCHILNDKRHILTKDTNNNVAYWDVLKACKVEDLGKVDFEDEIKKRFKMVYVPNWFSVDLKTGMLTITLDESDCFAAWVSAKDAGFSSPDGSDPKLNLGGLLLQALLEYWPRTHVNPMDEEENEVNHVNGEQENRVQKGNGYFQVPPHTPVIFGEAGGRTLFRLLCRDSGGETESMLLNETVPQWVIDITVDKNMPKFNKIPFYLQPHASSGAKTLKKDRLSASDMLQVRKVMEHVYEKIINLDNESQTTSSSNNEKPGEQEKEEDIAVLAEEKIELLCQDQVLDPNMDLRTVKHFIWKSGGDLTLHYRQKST
smiles,measurement,setting,value
"COc1ncnc(C2CC2)c1-c1nc2c3c(nn(Cc4ccc(-c5nc(C(F)(F)F)cn5C)cc4)c3n1)CCCC2 [Compound 11, 4-(4-cyclopropyl-6-methoxypyrimidine-5-yl)-2-(4-(1-methyl-4-(trifluoromethyl)-1H-imidazol-2-yl)benzyl)-6,7,8,9-tetrahydro-2H-1,2,3,5-tetraazabenzo[cd]pyrene]",IC50,[1],22 nM
same,exposure,[2],"more than 6,000 h*ng/ml"
same,IC50,MDA-MB-436 cells,101 nM
